Data on 4 molecules can be found in ChEMBL document CHEMBL4420076, “Amylin and calcitonin receptor agonist” (2017).

Molecules are shown by their SMILES. Numbered stars: 1 amine (or outer) side, 2 acyl side, 3 side chain; on linkers, the order of the positions; unused ones are H or OH. Peptide text beside a SMILES is read from it. * marks the point of attachment. C20 diacid = O=C(O)CCCCCCCCCCCCCCCCCCC(=O)*; γGlu = O=C(O)[C@H](CCC(=O)[*:2])N[*:1] Where only a bound is given, the exact number is not on record here.

For data set [1], the system named is Rattus norvegicus. Description: Reduction in food intake in Sprague-Dawley rat at 3 nmol/kg measured 24 to 48 hrs post dose relative to control. The data set is classed as functional. Further details: scale not given: the % may be the effect or the level left.
The nature of data set [2]: Solubility in 100 mM bistrispropane buffer at pH 7.0 incubated for 18 hrs by UPLC analysis. The data set is classed as physicochemical.
Data set [3] deals with T1, Calcitonin receptor (Homo sapiens, UniProt P30988).
T1 sequence (P30988 whole entry): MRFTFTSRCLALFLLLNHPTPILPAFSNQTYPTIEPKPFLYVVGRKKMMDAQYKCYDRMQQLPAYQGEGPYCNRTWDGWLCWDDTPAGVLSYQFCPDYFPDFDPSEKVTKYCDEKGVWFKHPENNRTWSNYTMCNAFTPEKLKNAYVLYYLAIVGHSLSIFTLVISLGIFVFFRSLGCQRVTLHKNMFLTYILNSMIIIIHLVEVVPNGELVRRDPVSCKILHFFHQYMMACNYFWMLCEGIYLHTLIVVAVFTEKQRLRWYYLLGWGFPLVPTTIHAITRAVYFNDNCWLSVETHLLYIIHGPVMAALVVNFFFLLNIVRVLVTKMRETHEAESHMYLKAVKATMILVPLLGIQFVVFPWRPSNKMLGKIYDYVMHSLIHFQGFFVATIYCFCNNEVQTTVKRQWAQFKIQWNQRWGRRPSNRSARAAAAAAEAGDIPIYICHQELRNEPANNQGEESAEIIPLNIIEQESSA
Put plainly: Agonist activity at human calcitonin receptor expressed in BHK570 cells assessed as increase in intracellular cAMP concentration incubated for 3 hrs in absence of albumin by CRE luciferase reporter gene assay. It counts as functional, cell-based. On the technique in general: Reporter assays use an easily measured gene product as a stand-in for the process of interest.

Data set [4] can be described thus: Solubility in 100 mM bistrispropane buffer at pH 8.0 incubated for 18 hrs by UPLC analysis. The data set is classed as physicochemical.
The target of data set [5] is T2, Amylin receptor AMY3; CALCR/RAMP3 (Homo sapiens, UniProt O60896+P30988).
T2 sequence (P30988 whole entry): T1 sequence (P30988 whole entry)
T2 sequence (O60896 whole entry): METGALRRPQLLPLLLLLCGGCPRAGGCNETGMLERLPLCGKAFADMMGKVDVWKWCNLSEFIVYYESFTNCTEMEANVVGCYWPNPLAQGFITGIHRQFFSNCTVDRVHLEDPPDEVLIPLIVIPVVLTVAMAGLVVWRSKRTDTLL
Description: Agonist activity at human amylin receptor expressed in BHK570 cells co-expressing RAMP3 assessed as increase in intracellular cAMP concentration incubated for 3 hrs in presence of 10% FBS by CRE luciferase reporter gene assay. It counts as functional, cell-based.

The target in data set [6] is T1, Calcitonin receptor. Description: Agonist activity at human calcitonin receptor expressed in BHK570 cells assessed as increase in intracellular cAMP concentration incubated for 3 hrs in presence of 10% FBS by CRE luciferase reporter gene assay. It counts as functional, cell-based.
Data set [7] concerns Rattus norvegicus. Description: Reduction in food intake in Sprague-Dawley rat at 3 nmol/kg measured 0 to 24 hrs post dose relative to control. The data set is classed as functional. Further details: scale not given: the % may be the effect or the level left.
Data set [8] in a line: Solubility in 100 mM glycylglycine buffer at pH 5.0 incubated for 18 hrs by UPLC analysis. The data set is classed as physicochemical.
Data set [9] is described as follows: Stability in pH 7.5 buffer assessed as lag time for fibril formation at 1 uM by Thioflavin T based fluorescence assay. It counts as physicochemical. The following applies: pH 7.5, 1 µM.
Data set [10] is described as follows: Solubility in 100 mM glycylglycine buffer at pH 4.0 incubated for 18 hrs by UPLC analysis. The data set is classed as physicochemical.
Data set [11] in a line: Solubility in 100 mM glycylglycine buffer at pH 3.0 incubated for 18 hrs by UPLC analysis. It counts as physicochemical.
A short description of data set [12]: Solubility in 100 mM bistrispropane buffer at pH 7.5 incubated for 18 hrs by UPLC analysis. It counts as physicochemical.
Data set [13] is described as follows: Solubility in 100 mM bistrispropane buffer at pH 6.5 incubated for 18 hrs by UPLC analysis. The data set is classed as physicochemical.
Data set [14] in a line: Solubility in 100 mM bistrispropane buffer at pH 6.0 incubated for 18 hrs by UPLC analysis. It counts as physicochemical.
For data set [15], the target named is T2, Amylin receptor AMY3; CALCR/RAMP3. Description: Agonist activity at human amylin receptor expressed in BHK570 cells co-expressing RAMP3 assessed as increase in intracellular cAMP concentration incubated for 3 hrs in absence of albumin by CRE luciferase reporter gene assay. The data set is classed as functional, cell-based.
Data set [16] in a line: Stability in pH 7.5 buffer assessed as compound recovery at 1 uM by Thioflavin T based fluorescence assay. It counts as physicochemical. The following applies: read-out: Drug recovery.

Turning to `CC(C)C[C@H](NC(=O)[C@H](C)NC(=O)[C@H](C)NC(=O)[C@@H](NC(=O)[C@H](CO)NC(=O)[C@H](CC(C)C)NC(=O)[C@H](CCC(=O)O)NC(=O)[C@H](CO)NC(=O)[C@H](C)NC(=O)CC[C@H](NC(=O)CCCCCCCCCCCCCCCCCCC(=O)O)C(=O)O)[C@@H](C)O)C(=O)NCC(=O)N[C@@H](CCCNC(=N)N)C(=O)N[C@@H](CC(C)C)C(=O)N[C@@H](CO)C(=O)N[C@@H](C)C(=O)N[C@@H](CCC(=O)O)C(=O)N[C@@H](CC(C)C)C(=O)N[C@@H](Cc1cnc[nH]1)C(=O)N[C@@H](CCC(=O)O)C(=O)N[C@@H](CC(C)C)C(=O)N[C@@H](C)C(=O)N[C@H](C(=O)N[C@@H](CC(C)C)C(=O)N1CCC[C@H]1C(=O)N[C@@H](CCCNC(=N)N)C(=O)N[C@H](C(=O)N[C@@H](CCC(=O)O)C(=O)N[C@H](C(=O)NCC(=O)N[C@@H](CO)C(=O)NCC(=O)N[C@@H](CO)C(=O)N1CCC[C@H]1C(N)=O)[C@@H](C)O)[C@@H](C)O)[C@@H](C)O` ({C20 diacid-γGlu}-ASELSTAALGRLSAELHELATLPRTETGSGSP-NH2), the Activity amounted to 79% in [1] and 49% in data set [7]. For the same molecule, the solubility at 18 h in data set [2], in [4], in data set [8], in [10], in data set [11] and in [12] was no less than 200 µM each time. Further, the solubility at 18 h in data set [13] and in data set [14] was no less than 200 µM throughout. Further, the half-maximal effective concentration (EC50) – broadly, the concentration that produces a half-maximal response – is 0.014 nM in data set [3], 0.051 nM in data set [5], 0.029 nM in data set [6] and 0.013 nM in data set [15]. In addition, the Time in data set [9] was greater than 45 h. The remaining at 1 µM in [16] was found to be 100%.

For `CC(C)C[C@H](NC(=O)[C@H](C)NC(=O)[C@H](C)NC(=O)[C@@H](NC(=O)[C@H](CO)NC(=O)[C@H](CC(C)C)NC(=O)[C@H](CCC(=O)O)NC(=O)[C@H](CO)NC(=O)[C@H](C)NC(=O)CC[C@H](NC(=O)CCCCCCCCCCCCCCCCCCC(=O)O)C(=O)O)[C@@H](C)O)C(=O)NCC(=O)N[C@@H](CCCNC(=N)N)C(=O)N[C@@H](CC(C)C)C(=O)N[C@@H](CO)C(=O)N[C@@H](C)C(=O)N[C@@H](CCC(=O)O)C(=O)N[C@@H](CC(C)C)C(=O)N[C@@H](Cc1cnc[nH]1)C(=O)N[C@@H](CCC(=O)O)C(=O)N[C@@H](CC(C)C)C(=O)N[C@@H](C)C(=O)N[C@H](C(=O)N[C@@H](Cc1ccc(O)cc1)C(=O)N1CCC[C@H]1C(=O)N[C@@H](CCCNC(=N)N)C(=O)N[C@H](C(=O)N[C@@H](CCC(=O)O)C(=O)N[C@H](C(=O)NCC(=O)N[C@@H](CO)C(=O)NCC(=O)N[C@@H](CO)C(=O)N[C@@H](Cc1ccc(O)cc1)C(N)=O)[C@@H](C)O)[C@@H](C)O)[C@@H](C)O` ({C20 diacid-γGlu}-ASELSTAALGRLSAELHELATYPRTETGSGSY-NH2), the Activity in data set [1] was determined as 56%; in data set [7], 49%. In addition, the solubility at 18 h in data set [2], in [4], in [10], in data set [11], in [12] and in data set [13] was no less than 200 µM each time. Also, in data set [14], the solubility (as a rule, how much of the substance goes into solution per volume) at 18 h was no less than 200 µM. The EC50 in data set [3] was 0.029 nM; in data set [5] it was 0.093 nM; in [6], 0.071 nM; in data set [15], 0.032 nM. Moreover, the Time in [9] was greater than 45 h. The remaining at 1 µM in [16] was found to be 100%.

As for `CC(C)C[C@H](NC(=O)CNC(=O)[C@H](CO)NC(=O)[C@H](C)NC(=O)CC[C@H](NC(=O)CCCCCCCCCCCCCCCCCCC(=O)O)C(=O)O)C(=O)N[C@@H](CO)C(=O)N[C@H](C(=O)N[C@@H](C)C(=O)N[C@H](C(=O)N[C@@H](CC(C)C)C(=O)NCC(=O)N[C@@H](CCCNC(=N)N)C(=O)N[C@@H](CC(C)C)C(=O)N[C@@H](CO)C(=O)N[C@@H](C)C(=O)N[C@@H](CCC(=O)O)C(=O)N[C@@H](CC(C)C)C(=O)N[C@@H](Cc1cnc[nH]1)C(=O)N[C@@H](CCC(=O)O)C(=O)N[C@@H](CC(C)C)C(=O)N[C@@H](C)C(=O)N[C@H](C(=O)N[C@@H](Cc1ccc(O)cc1)C(=O)N1CCC[C@H]1C(=O)N[C@@H](CCCNC(=N)N)C(=O)N[C@H](C(=O)N[C@@H](CCC(=O)O)C(=O)N[C@H](C(=O)NCC(=O)N[C@@H](CO)C(=O)NCC(=O)N[C@H](C(=O)N1CCC[C@H]1C(N)=O)[C@@H](C)O)[C@@H](C)O)[C@@H](C)O)[C@@H](C)O)C(C)C)[C@@H](C)O` ({C20 diacid-γGlu}-ASGLSTAVLGRLSAELHELATYPRTETGSGTP-NH2), the values for the Activity in data set [1] and in data set [7] were 57% and 52%, respectively. Moreover, the solubility at 18 h in data set [2], in data set [4], in data set [8], in [10], in data set [11] and in data set [12] was no less than 200 µM each time. Moreover, the solubility at 18 h in data set [13] and in [14] was no less than 200 µM in each case. Further, the EC50 in [3] was 0.028 nM; in data set [5] it was 0.066 nM; in [6], 0.035 nM; in [15], 0.047 nM. For the same molecule, the Time in data set [9] was greater than 45 h. Besides, the remaining at 1 µM in data set [16] is 100%.

As to `CC(C)C[C@H](NC(=O)CNC(=O)[C@H](CO)NC(=O)[C@H](C)NC(=O)CC[C@H](NC(=O)CCCCCCCCCCCCCCCCCCC(=O)O)C(=O)O)C(=O)N[C@@H](CO)C(=O)N[C@H](C(=O)N[C@@H](C)C(=O)N[C@H](C(=O)N[C@@H](CC(C)C)C(=O)NCC(=O)N[C@@H](CCCNC(=N)N)C(=O)N[C@@H](CC(C)C)C(=O)N[C@@H](CO)C(=O)N[C@@H](CCC(N)=O)C(=O)N[C@@H](CCC(=O)O)C(=O)N[C@@H](CC(C)C)C(=O)N[C@@H](Cc1cnc[nH]1)C(=O)N[C@@H](CCC(=O)O)C(=O)N[C@@H](CC(C)C)C(=O)N[C@@H](CCC(N)=O)C(=O)N[C@H](C(=O)N[C@@H](Cc1ccc(O)cc1)C(=O)N1CCC[C@H]1C(=O)N1CCC[C@H]1C(=O)N[C@H](C(=O)N[C@@H](CCC(=O)O)C(=O)N[C@H](C(=O)NCC(=O)N[C@@H](CO)C(=O)N[C@@H](CCC(N)=O)C(=O)N[C@H](C(=O)N[C@@H](Cc1ccc(O)cc1)C(N)=O)[C@@H](C)O)[C@@H](C)O)[C@@H](C)O)[C@@H](C)O)C(C)C)[C@@H](C)O` ({C20 diacid-γGlu}-ASGLSTAVLGRLSQELHELQTYPPTETGSQTY-NH2), the Activity was determined as 5% in data set [1] and 9% in [7]. The solubility at 18 h in [2], in data set [4], in [8], in data set [11], in [12] and in data set [13] was no less than 200 µM in each case. The molecule further gave a solubility at 18 h in data set [14] of no less than 200 µM. Also, the figures for the EC50 in data set [3], in data set [5] and in [6] were 0.057 nM, 0.152 nM and 0.072 nM, respectively. Also, the Time in data set [9] was greater than 45 h. The remaining at 1 µM in [16] stood at 100%.
